Experimental data as given in patent US11613556B2, “Oxysterols and methods of use thereof” (Sage Therapeutics, Inc., priority 2016, dated 2023).

What follows are compounds tested against glutamate-activated channels of the GRIN1/2A subtype stably transfected in HEK 293 cells (Homo sapiens (Human), UniProt Q05586+Q12879) (assay: Automated patch-clamp system (QPatch HTX), percent potentiation at 1 μM). Conditions: HEK293, 1 μM test compound, 300 μM NMDA with 8 μM glycine, HEK 293 GRIN1/2A, read-out: GluN2A PCA % potentiation at 1 μM.
Sequence of glutamate-activated channels of the GRIN1/2A subtype stably transfected in HEK 293 cells (Q12879 whole entry, looked up, other chains not shown): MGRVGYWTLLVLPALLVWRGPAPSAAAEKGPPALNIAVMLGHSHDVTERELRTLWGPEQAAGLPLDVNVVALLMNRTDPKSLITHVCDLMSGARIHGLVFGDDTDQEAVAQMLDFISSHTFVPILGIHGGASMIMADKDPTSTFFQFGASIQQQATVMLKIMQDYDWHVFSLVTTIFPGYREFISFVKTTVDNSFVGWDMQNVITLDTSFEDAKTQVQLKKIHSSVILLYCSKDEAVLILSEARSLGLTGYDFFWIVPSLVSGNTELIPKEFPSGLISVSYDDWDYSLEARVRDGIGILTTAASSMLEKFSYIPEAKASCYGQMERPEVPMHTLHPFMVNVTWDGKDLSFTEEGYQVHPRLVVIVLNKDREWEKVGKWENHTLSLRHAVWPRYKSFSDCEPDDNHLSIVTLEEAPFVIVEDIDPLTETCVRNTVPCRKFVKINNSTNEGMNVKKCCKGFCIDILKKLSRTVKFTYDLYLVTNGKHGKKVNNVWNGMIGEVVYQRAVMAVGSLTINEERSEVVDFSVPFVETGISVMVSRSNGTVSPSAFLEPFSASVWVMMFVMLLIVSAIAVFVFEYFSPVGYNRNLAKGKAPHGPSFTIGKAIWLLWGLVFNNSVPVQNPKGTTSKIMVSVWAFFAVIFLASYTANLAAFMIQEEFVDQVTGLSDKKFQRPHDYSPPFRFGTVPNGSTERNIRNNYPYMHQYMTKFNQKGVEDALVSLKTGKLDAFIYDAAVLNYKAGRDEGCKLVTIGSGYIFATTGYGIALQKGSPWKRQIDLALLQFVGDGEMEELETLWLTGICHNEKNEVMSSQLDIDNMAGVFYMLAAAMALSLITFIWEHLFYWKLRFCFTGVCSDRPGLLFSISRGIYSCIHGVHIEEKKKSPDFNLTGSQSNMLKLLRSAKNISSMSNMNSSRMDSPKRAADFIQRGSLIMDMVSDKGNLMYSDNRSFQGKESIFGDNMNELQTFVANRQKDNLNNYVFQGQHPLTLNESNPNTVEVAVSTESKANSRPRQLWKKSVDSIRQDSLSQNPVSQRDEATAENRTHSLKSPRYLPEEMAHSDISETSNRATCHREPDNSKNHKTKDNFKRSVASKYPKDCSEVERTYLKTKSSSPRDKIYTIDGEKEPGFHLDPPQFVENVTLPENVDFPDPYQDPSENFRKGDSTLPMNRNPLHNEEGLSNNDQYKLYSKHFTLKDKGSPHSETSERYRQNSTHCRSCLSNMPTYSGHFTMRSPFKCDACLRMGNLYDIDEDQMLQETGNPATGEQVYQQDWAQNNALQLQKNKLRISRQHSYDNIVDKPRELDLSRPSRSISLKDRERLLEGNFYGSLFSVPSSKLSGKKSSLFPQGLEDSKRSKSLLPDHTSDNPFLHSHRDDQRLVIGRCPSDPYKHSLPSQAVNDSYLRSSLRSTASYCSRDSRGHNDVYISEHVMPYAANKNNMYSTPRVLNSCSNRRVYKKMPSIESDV
Format: cell-based
Protocol: NMDA potentiation in mammalian cells which expressed NMDA receptors was assessed using the automatic patch-clamp system can be used determine the NAM activity of compounds as described below. An whole cell patch-clamp system can be used determine the PAM activity of compounds as described below.
Automated Patch-Clamp System (OPatch HTX):
In this study, HEK 293 cells stably transfected with glutamate-activated channels of the GRIN1/2A subtype will be used together with submaximal NMDA concentrations (300 μM NMDA, co-application with 8 μM Glycine) to investigate the negative allosteric modulation of the test compounds.
In general, cells will be passaged at a confluence of about 80% to […]. For electrophysiological measurements cells will be harvested at a confluence of about 80% to 90% from sterile culture flasks containing culture complete medium. Cells will be transferred as suspension in PBS to the QPatch 16X or QPatch HTX system to the centrifuge/washer directly.
Standard Laboratory Conditions: Cells will be incubated at 37° C. in a humidified atmosphere with 5% CO2 (rel. humidity about 95%).
Culture media: The cells will be continuously maintained in and passaged in sterile culture flasks containing a 1:1 mixture of Dulbecco's modified eagle medium and nutrient mixture F-12 (D-MEM/F-12 1×, liquid, with L-Glutamine) supplemented with 10% fetal bovine serum, 1% Penicillin/Streptomycin solution, and 50 μM AP-5 blocker.
Antibiotics: The complete medium as indicated above is supplemented with 100 μg/mL hygromycin, 15 μg/mL blasticidin and 1 μg/mL puromycin.
Induction of Expression: 2.5 μg/mL tetracycline is added 24 h before start of experiments.
Dose levels are in terms of test compounds, as supplied. Vehicle will be added to achieve a stock concentration of 10 mM (storage at −10° C. to −30° C.). A further stock solutions of 1.0 mM will be prepared in DMSO. Details of stock solution usage (thawing, dose formulations) will be documented in the raw data. The time period of stock solution usage will be detailed in the report.
Test Compound Concentrations
One test concentration of 1.0 μM will be tested.
All test solutions will be prepared by diluting the stock solutions with either Mg-free bath solution only or Mg-free bath solution containing NMDA (300 μM) and glycine (8.0 μM) shortly prior to the electrophysiological experiments and kept at room temperature (19° C. to 30° C.) when in use. 0.1% DMSO will be used as vehicle.
Frequency of preparation: For each test concentration, fresh solutions of test compounds will be prepared every day.
Stability of dose formulation: All preparation times will be documented in the raw data. Any observations regarding instability of test compounds will be mentioned in the raw data.
Storage of dose formulation: On the day of experimentation dose formulations will be maintained at room temperature (19° C. to 30° C.) when in use.
For preparing the experiments and for formation of the giga-ohm-seal, the following standard bath solution will be used:
Sodium Chloride: 137 mM; Potassium Chloride: 4 mM; Calcium Chloride: 1.8 mM; Magnesium Chloride: 1 mM; HEPES: 10 mM; D-Glucose: 10 mM; Cremophor: 0.02%; pH (NaOH): 7.4
The 1× bath solution will be prepared by diluting 10× bath solution without Glucose and 100× Glucose solution with water at least every 7 days. Both stock solutions have been prepared prior to the experimental start of the present study and stored at 1° C. to 9° C. (10× bath solution) or −10° C. to −30° (100× Glucose solution). The batch number(s) of the bath solution(s) used in the experiments will be documented in the raw data. When in use, the 1× bath solution will be kept at room temperature (19° C. to 30° C.). When not in use, the 1× bath solution will be stored at 1° C. to 9° C.
After the giga-seal was formed the following Mg-free bath solution will be used:
Sodium Chloride: 137 mM; Potassium Chloride: 4 mM; Calcium Chloride; 2.8 mM; HEPES: 10 mM; D-Glucose: 10 mM; Cremophor: 0.02%; pH (NaOH): 7.4 […]
Compound CC[C@]1(O)CC[C@@]2(C)C(=CC[C@H]3[C@@H]4CC[C@H]([C@H](C)[C@@H](O)CC5(C)COC5)[C@@]4(C)CC[C@@H]32)C1 [Compound 70, (3S,8S,9S,10R,13S,14S,17R)-3-ethyl-17-((2S,3S)-3-hydroxy-4-(3-methyloxetan-3-yl)butan-2-yl)-10,13-dimethyl-2,3,4,7,8,9,10,11,12,13,14,15,16,17-tetradecahydro-1H-cyclopenta[a]phenanthren-3-ol] has an activation at 1 µM of -40 to -10%. COC[C@]1(O)CC[C@@]2(C)[C@H](CC[C@@H]3[C@@H]2CC[C@]2(C)[C@@H]([C@H](C)[C@H](O)C(F)(F)F)CC[C@@H]32)C1 [Compound 71, (3S,5R,8R,9S,10S,13S,14S,17R)-3-(methoxymethyl)-10,13-dimethyl-17-((2S,3S)-4,4,4-trifluoro-3-hydroxybutan-2-yl)hexadecahydro-1H-cyclopenta[a]phenanthren-3-ol] was tested, and the activation at 1 µM was -40 to -10%. In the case of CC(C)CC[C@H](O)[C@@H](C)[C@H]1CC[C@H]2[C@@H]3CC[C@H]4C[C@@](C)(O)CC[C@@H]4[C@H]3CC[C@]12C [Compound 74, (3S,5S,8R,9R,10S,13S,14S,17R)-17-((2S,3S)-3-hydroxy-6-methylheptan-2-yl)-3,13-dimethylhexadecahydro-1H-cyclopenta[a]phenanthren-3-ol], the activation at 1 µM was -40 to -10%. CC(C)CC[C@H](O)[C@@H](C)[C@H]1CC[C@H]2[C@@H]3CC=C4C[C@@](C)(O)CC[C@@H]4[C@H]3CC[C@]12C [Compound 80, (3S,8R,9S,10R,13S,14S,17R)-17-((2S,3S)-3-hydroxy-6-methylheptan-2-yl)-3,13-dimethyl-2,3,4,7,8,9,10,11,12,13,14,15,16,17-tetradecahydro-1H-cyclopenta[a]phenanthren-3-ol] showed an activation at 1 µM of -40 to -10%. For CC[C@]1(O)CC[C@@]2(C)C(=CC[C@H]3[C@@H]4CC[C@H]([C@H](C)[C@H](O)C(F)(F)F)[C@@]4(C)CC[C@@H]32)C1 [Compound 81, (3S,8S,9S,10R,13S,14S,17R)-3-ethyl-10,13-dimethyl-17-((2S,3S)-4,4,4-trifluoro-3-hydroxybutan-2-yl)-2,3,4,7,8,9,10,11,12,13,14,15,16,17-tetradecahydro-1H-cyclopenta[a]phenanthren-3-ol], the activation at 1 µM was -40 to -10%. Compound CC(C)CC[C@@H](O)[C@@H](C)[C@H]1CC[C@H]2[C@@H]3CC=C4C[C@@](C)(O)CC[C@@H]4[C@H]3CC[C@]12C [Compound 83, (3S,8R,9S,10R,13S,14S,17R)-17-((2S,3R)-3-hydroxy-6-methylheptan-2-yl)-3,13-dimethyl-2,3,4,7,8,9,10,11,12,13,14,15,16,17-tetradecahydro-1H-cyclopenta[a]phenanthren-3-ol] has an activation at 1 µM of -40 to -10%. CC(C)CC[C@@H](O)[C@@H](C)[C@H]1CC[C@H]2[C@@H]3CC[C@H]4C[C@](O)(C(F)(F)F)CC[C@]4(C)[C@H]3CC[C@]12C [Compound 85, (3S,5S,8R,9S,10S,13S,14S,17R)-17-((2S,3R)-3-hydroxy-6-methylheptan-2-yl)-10,13-dimethyl-3-(trifluoromethyl)hexadecahydro-1H-cyclopenta[a]phenanthren-3-ol] showed an activation at 1 µM of -10 to 10%. With CC[C@]1(O)CC[C@@]2(C)[C@@H](CC[C@@H]3[C@@H]2CC[C@]2(C)[C@@H]([C@H](C)[C@@H](O)C4CCOCC4)CC[C@@H]32)C1 [Compound 86, (3S,5S,8R,9S,10S,13S,14S,17R)-3-ethyl-17-((1S,2S)-1-hydroxy-1-(tetrahydro-2H-pyran-4-yl)propan-2-yl)-10,13-dimethylhexadecahydro-1H-cyclopenta[a]phenanthren-3-ol] the activation at 1 µM was -40 to -10%. In the case of CC(C)CC[C@@H](O)[C@@H](C)[C@H]1CC[C@H]2[C@@H]3CC[C@H]4C[C@@](C)(O)CC[C@@H]4[C@H]3CC[C@]12C [Compound 88, (3S,5S,8R,9R,10S,13S,14S,17R)-17-((2S,3R)-3-hydroxy-6-methylheptan-2-yl)-3,13-dimethylhexadecahydro-1H-cyclopenta[a]phenanthren-3-ol], the activation at 1 µM was -40 to -10%. In the case of CC[C@]1(O)CC[C@@]2(C)[C@@H](CC[C@@H]3[C@@H]2CC[C@]2(C)[C@@H]([C@H](C)[C@H](O)C4CC4)CC[C@@H]32)C1 [Compound 90, (3S,5S,8R,9S,10S,13S,14S,17R)-17-((1R,2S)-1-cyclopropyl-1-hydroxypropan-2-yl)-3-ethyl-10,13-dimethylhexadecahydro-1H-cyclopenta[a]phenanthren-3-ol], the activation at 1 µM was -10 to 10%. Work on C[C@H]([C@H](C)O)[C@H]1CC[C@H]2[C@@H]3CC[C@H]4C[C@](O)(C(F)(F)F)CC[C@]4(C)[C@H]3CC[C@]12C [Compound 91, (3S,5S,8R,9S,10S,13S,14S,17R)-17-((2S,3S)-3-hydroxybutan-2-yl)-10,13-dimethyl-3-(trifluoromethyl)hexadecahydro-1H-cyclopenta[a]phenanthren-3-ol] yielded an activation at 1 µM of -40 to -10%. COC[C@]1(O)CC[C@@]2(C)C(=CC[C@H]3[C@@H]4CC[C@H]([C@H](C)[C@@H](O)C(F)(F)F)[C@@]4(C)CC[C@@H]32)C1 [Compound 95, (3S,8S,9S,10R,13S,14S,17R)-3-(methoxymethyl)-10,13-dimethyl-17-((2S,3R)-4,4,4-trifluoro-3-hydroxybutan-2-yl)-2,3,4,7,8,9,10,11,12,13,14,15,16,17-tetradecahydro-1H-cyclopenta[a]phenanthren-3-ol] was tested, and the activation at 1 µM was < -40%. For C[C@@H]([C@H]1CC[C@H]2[C@@H]3CC[C@@H]4C[C@@](C)(O)CC[C@]4(C)[C@H]3CC[C@]12C)[C@H](O)C(F)(F)F [Compound 97, (3S,5R,8R,9S,10S,13S,14S,17R)-3,10,13-trimethyl-17-((2S,3S)-4,4,4-trifluoro-3-hydroxybutan-2-yl)hexadecahydro-1H-cyclopenta[a]phenanthren-3-ol], the activation at 1 µM was -40 to -10%.
